Data published in patent US20250092056A1, “URACIL DERIVATIVES HAVING VIRUS REPLICATION INHIBITORY ACTIVITY AND PHARMACEUTICAL COMPOSITION COMPRISING THE SAME” (Shionogi & Co., Ltd., priority 2022, published 2025).
Where two headings read alike, the source gives them in different places.

How the values were obtained:
SARS-CoV-2 = assay: Cytopathic effect (CPE) suppression effect confirmation test using HEK293T/ACE2-TMPRSS2 cells; assay type: cell-based
[1] = molecular target: Recombinant SARS-CoV-2 3CL Protease (Severe acute respiratory syndrome coronavirus 2 (2019-nCoV) (SARS-CoV-2), UniProt P0DTD1); assay: biochemical; assay type: biochemical; conditions: 50% SARS-CoV-2 3CL protease inhibitory concentration; read-out: IC50
[2] = Severe acute respiratory syndrome coronavirus 2, HEK-293T, 50% SARS-CoV-2 infected cell death inhibitory concentration, HEK293T/ACE2-TMPRSS2 cells, read-out: EC50
[3] = Severe acute respiratory syndrome coronavirus 2, HEK-293T, 72 h, read-out: EC50 (50% SARS-CoV-2 infected cell death inhibitory concentration), class, HEK293T/ACE2-TMPRSS2 cells, CPE suppression, CellTiter-Glo 2.0 after 3 days culture
[4] = Severe acute respiratory syndrome coronavirus 2, HEK-293T, 72 h, HEK293T/ACE2-TMPRSS2 cells, CPE suppression, CellTiter-Glo 2.0 after 3 days culture, read-out: EC50 (50% SARS-CoV-2 infected cell death inhibitory concentration), class

Row | Structure (SMILES) | EC50 (SARS-CoV-2; [2]) [nM] | IC50 [1] [nM] | EC50 (SARS-CoV-2; [3]) [nM] | EC50 (SARS-CoV-2; [4]) [nM] | EC50 (SARS-CoV-2; read-out: EC50 (50% SARS-CoV-2 infected cell death inhibitory concentration), class, HEK293T/ACE2-TMPRSS2 cells, CPE suppression, CellTiter-Glo 2.0 after 3 days culture) [nM]
1 | N#CCn1c(N2CC(OC(F)F)C2)c(-c2ccc(F)c(C(F)F)c2)c(=O)n(-c2cncc(C#N)c2)c1=O [Compound I-415] | < 100 | < 10 |  |  | 
2 | Cc1cncc(-n2c(=O)c(-c3ccc(F)c(Cl)c3)c(NS(=O)(=O)c3ccccc3)n(CC#N)c2=O)c1 [Compound I-276] | < 100 | < 10 |  |  | 
3 | N#CCn1c(N2CC3(CCOC3)C2)c(-c2cccc(C(F)F)c2)c(=O)n(-c2cncc(Cl)c2)c1=O [Compound I-177] |  | < 10 | < 100 |  | 
4 | N#CCn1c(N2CC3(CC3)C2)c(-c2ccc(F)c(Cl)c2)c(=O)n(-c2cnc3cc(Cl)ccn23)c1=O [Compound I-134] |  | < 10 | < 100 |  | 
5 | N#CCn1c(N2CCC(O)(C(F)(F)F)CC2)c(-c2ccc(F)c(Cl)c2)c(=O)n(-c2cnc3cc(Cl)ccn23)c1=O [Compound I-141] |  | 10 to 100 |  | < 100 | 
6 | N#CCn1c(N2CC3(CCOC3)C2)c(-c2ccccc2)c(=O)n(-c2cncc(Cl)c2)c1=O [Compound I-171] |  | < 10 | < 100 |  | 
7 | N#CCn1c(N2CCC(C(F)F)CC2)c(-c2ccc(F)c(C#N)c2)c(=O)n(-c2cncc(Cl)c2)c1=O [Compound I-398] | < 100 | < 10 |  |  | 
8 | N#CCn1c(C2CCC2)c(-c2ccc(F)c(Cl)c2)c(=O)n(-c2cncc(Cl)c2)c1=O [Compound I-395] | < 100 | < 10 |  |  | 
9 | N#CCn1c(N2CC3(C2)CC(F)(F)C3)c(-c2ccc(F)c(Cl)c2)c(=O)n(-c2cncc(C#N)n2)c1=O [Compound I-206] | < 100 | < 10 |  |  | 
10 | N#CCn1c(N2CC(c3ncccn3)C2)c(-c2ccc(F)c(Cl)c2)c(=O)n(-c2cncc(Cl)c2)c1=O [Compound I-233] | < 100 | < 10 |  |  | 
11 | N#CCn1c(N2CC(C(F)(F)F)C2)c(-c2ccc(F)c(C(F)F)c2)c(=O)n(-c2cncc(Cl)c2)c1=O [Compound I-341] | < 100 | < 10 |  |  | 
12 | N#CCn1c(N2CC(O)(C3CC3)C2)c(-c2ccc(F)c(Cl)c2)c(=O)n(-c2cncc(C(F)F)n2)c1=O [Compound I-381] | < 100 | < 10 |  |  | 
13 | N#CCn1c(N2CCC3(CNC(=O)C3)C2)c(-c2ccc(F)c(Cl)c2)c(=O)n(-c2cncc(Cl)c2)c1=O (racemic) [Compound I-063] |  | < 10 | 100 to 1000 |  | 
14 | N#CCn1c(N2CC3(CCOC3)C2)c(-c2ccc(F)c(Cl)c2)c(=O)n(-c2cncc(C(F)(F)F)n2)c1=O [Compound I-190] |  | < 10 | < 100 |  | 
15 | Cc1cncc(-n2c(=O)c(-c3ccc(F)c(Cl)c3)c(N3CCC(C(F)(F)F)CC3)n(CC#N)c2=O)n1 [Compound I-199] |  | < 10 | < 100 |  | 
16 | CC1(O)CC2(CN(c3c(-c4ccc(F)c(Cl)c4)c(=O)n(-c4cnc5cc(F)ccn45)c(=O)n3CC#N)C2)C1 [Compound I-137] |  | 10 to 100 |  | 100 to 1000 | 
17 | Cc1cncc(-n2c(=O)c(Cc3cc(F)c(F)c(F)c3)c(N3CCC(S(N)(=O)=O)C3)n(CC#N)c2=O)c1 (racemic) [Compound I-108] |  | < 10 | 100 to 1000 |  | 
18 | N#CCn1c(N2CC(O)(c3cnccn3)C2)c(-c2ccc(F)c(Cl)c2)c(=O)n(-c2cncc(Cl)c2)c1=O [Compound I-237] | < 100 | < 10 |  |  | 
19 | N#CCn1c(N2CCC(C(F)F)CC2)c(-c2ccc(F)c(F)c2)c(=O)n(-c2cncc(Cl)c2)c1=O [Compound I-397] | < 100 | < 10 |  |  | 
20 | N#CCn1c(N2CC(N3CCOCC3)C2)c(-c2ccc(F)c(Cl)c2)c(=O)n(-c2cncc(Cl)c2)c1=O [Compound I-085] |  | < 10 | < 100 |  | 
21 | N#CCn1c(N2CC(OC(F)(F)F)C2)c(-c2ccc(F)c(Cl)c2)c(=O)n(-c2cncc(C(F)(F)F)n2)c1=O [Compound I-334] | < 100 | < 10 |  |  | 
22 | N#CCn1c(N2CC(OC(F)F)C2)c(-c2ccc(F)c(C(F)F)c2)c(=O)n(-c2cncc(Cl)c2)c1=O [Compound I-342] | < 100 | < 10 |  |  | 
23 | N#CCn1c(-c2nnc(C3CC3)s2)c(-c2ccc(F)c(Cl)c2)c(=O)n(-c2cncc(Cl)c2)c1=O [Compound I-359] | < 100 | < 10 |  |  | 
24 | Cc1[nH]ncc1-n1c(=O)c(Cc2cc(F)c(F)c(F)c2)c(N2Cc3ccccc3C2)n(CC#N)c1=O [Compound I-164] |  | > 100 | < 100 |  | 100 to 1000
25 | N#CCn1c(N2CC(F)(C3CC3)C2)c(-c2ccc(F)c(Cl)c2)c(=O)n(-c2cncc(Cl)c2)c1=O [Compound I-076] |  | < 10 | < 100 |  | 
